Source: PubChem BioAssay (NCI)
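Following 48 hours of exposure in 96-well plates, responses at five concentrations were used to interpolate endpoints linearly. GI50 marks 50% less growth. Definition used: TGI = concentration required for complete inhibition of growth.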

Assays:
Assay in all cases: DTP human tumour cell line panel, 48 h
OVCAR-4 ovarian = tested on: OVCAR-4 ovarian
SNB-19 CNS = tested on: SNB-19 CNS
HL-60(TB) leukemia = tested on: HL-60(TB) leukemia
ACHN renal = tested on: ACHN renal
BT-549 breast = tested on: BT-549 breast
CAKI-1 renal = tested on: CAKI-1 renal
SNB-75 CNS = tested on: SNB-75 CNS
OVCAR-8 ovarian = tested on: OVCAR-8 ovarian
SK-MEL-5 melanoma = tested on: SK-MEL-5 melanoma
UACC-62 melanoma = tested on: UACC-62 melanoma
A549 NSCLC = tested on: A549 NSCLC
HS 578T breast = tested on: HS 578T breast
T-47D breast = tested on: T-47D breast
OVCAR-3 ovarian = tested on: OVCAR-3 ovarian
KM12 colon = tested on: KM12 colon
LOX IMVI melanoma = tested on: LOX IMVI melanoma
SN12C renal = tested on: SN12C renal
NCI/ADR-RES ovarian = tested on: NCI/ADR-RES ovarian
UO-31 renal = tested on: UO-31 renal
IGROV1 ovarian = tested on: IGROV1 ovarian
HT29 colon = tested on: HT29 colon
SW-620 colon = tested on: SW-620 colon
DU-145 prostate = tested on: DU-145 prostate
HCT-15 colon = tested on: HCT-15 colon
UACC-257 melanoma = tested on: UACC-257 melanoma
MCF7 breast = tested on: MCF7 breast
OVCAR-5 ovarian = tested on: OVCAR-5 ovarian
NCI-H460 lung = tested on: NCI-H460 lung
SF-295 CNS = tested on: SF-295 CNS
U251 CNS = tested on: U251 CNS
HCC-2998 colon = tested on: HCC-2998 colon
MALME-3M melanoma = tested on: MALME-3M melanoma
M14 melanoma = tested on: M14 melanoma
MDA-MB-231 breast = tested on: MDA-MB-231 breast
TK-10 renal = tested on: TK-10 renal
K-562 leukemia = tested on: K-562 leukemia
RPMI-8226 leukemia = tested on: RPMI-8226 leukemia
SF-268 CNS = tested on: SF-268 CNS
A498 renal = tested on: A498 renal
786-0 renal = tested on: 786-0 renal
NCI-H522 lung = tested on: NCI-H522 lung
PC-3 prostate = tested on: PC-3 prostate
SK-OV-3 ovarian = tested on: SK-OV-3 ovarian
MDA-MB-435 = tested on: MDA-MB-435
NCI-H23 lung = tested on: NCI-H23 lung
HOP-62 NSCLC = tested on: HOP-62 NSCLC
HOP-92 NSCLC = tested on: HOP-92 NSCLC
CCRF-CEM leukemia = tested on: CCRF-CEM leukemia
SK-MEL-28 melanoma = tested on: SK-MEL-28 melanoma
RXF 393 renal = tested on: RXF 393 renal
SK-MEL-2 melanoma = tested on: SK-MEL-2 melanoma
MOLT-4 leukemia = tested on: MOLT-4 leukemia
SR leukemia = tested on: SR leukemia
COLO 205 colon = tested on: COLO 205 colon
HCT-116 colon = tested on: HCT-116 colon
NCI-H226 lung = tested on: NCI-H226 lung
SF-539 CNS = tested on: SF-539 CNS

With `CC(=O)c1nc2ccccc2n1CCN1CCN(C)CC1` as the compound, how does the GI50 (OVCAR-4 ovarian) read?
Its GI50 is 15.7 µM.

And the TGI (OVCAR-4 ovarian)?
The TGI was over 100 µM.

And the GI50 (SNB-19 CNS)?
The GI50 was 17.3 µM.

And the TGI (SNB-19 CNS)?
The TGI was over 100 µM.

And the GI50 (HL-60(TB) leukemia)?
Its GI50 is 2.62 µM.

And the TGI (HL-60(TB) leukemia)?
Its TGI is over 26.2 µM.

What about the GI50 (ACHN renal) of the same compound?
Its GI50 is 23.4 µM.

And the TGI (ACHN renal)?
The TGI was over 100 µM.

What about the GI50 (BT-549 breast) of the same compound?
The GI50 was 6.21 µM.

What about the TGI (BT-549 breast) of the same compound?
Its TGI is over 100 µM.

And the GI50 (CAKI-1 renal)?
The GI50 was 34.1 µM.

What about the TGI (CAKI-1 renal) of the same compound?
Its TGI is over 100 µM.

And the GI50 (SNB-75 CNS)?
Its GI50 is 0.0668 µM.

What about the TGI (SNB-75 CNS) of the same compound?
The TGI was 1.57 µM.

What about the GI50 (OVCAR-8 ovarian) of the same compound?
The GI50 was 3.76 µM.

What about the TGI (OVCAR-8 ovarian) of the same compound?
The TGI was over 100 µM.

And the GI50 (SK-MEL-5 melanoma)?
Its GI50 is 3.13 µM.

And the TGI (SK-MEL-5 melanoma)?
Its TGI is over 100 µM.

And the GI50 (UACC-62 melanoma)?
Its GI50 is 4.11 µM.

What about the TGI (UACC-62 melanoma) of the same compound?
The TGI was over 100 µM.

And the GI50 (A549 NSCLC)?
Its GI50 is 2.63 µM.

And the TGI (A549 NSCLC)?
Its TGI is over 100 µM.

And the GI50 (HS 578T breast)?
Its GI50 is 2.15 µM.

And the TGI (HS 578T breast)?
Its TGI is 25.9 µM.

And the GI50 (T-47D breast)?
The GI50 was 2.97 µM.

What about the TGI (T-47D breast) of the same compound?
Its TGI is over 100 µM.

And the GI50 (OVCAR-3 ovarian)?
Its GI50 is 2.6 µM.

And the TGI (OVCAR-3 ovarian)?
Its TGI is over 26 µM.

And the GI50 (KM12 colon)?
Its GI50 is 3.06 µM.

What about the TGI (KM12 colon) of the same compound?
Its TGI is over 100 µM.

And the GI50 (LOX IMVI melanoma)?
The GI50 was 2.6 µM.

And the TGI (LOX IMVI melanoma)?
Its TGI is over 100 µM.

What about the GI50 (SN12C renal) of the same compound?
The GI50 was 4.21 µM.

What about the TGI (SN12C renal) of the same compound?
Its TGI is over 100 µM.

And the GI50 (NCI/ADR-RES ovarian)?
Its GI50 is 61.1 µM.

And the TGI (NCI/ADR-RES ovarian)?
The TGI was over 100 µM.

What about the GI50 (UO-31 renal) of the same compound?
Its GI50 is 9.35 µM.

And the TGI (UO-31 renal)?
The TGI was over 100 µM.

What about the GI50 (IGROV1 ovarian) of the same compound?
Its GI50 is 4.83 µM.

What about the TGI (IGROV1 ovarian) of the same compound?
The TGI was over 100 µM.

What about the GI50 (HT29 colon) of the same compound?
The GI50 was 0.639 µM.

And the TGI (HT29 colon)?
The TGI was 10.4 µM.

And the GI50 (SW-620 colon)?
The GI50 was 2.8 µM.

And the TGI (SW-620 colon)?
Its TGI is over 100 µM.

And the GI50 (DU-145 prostate)?
Its GI50 is 2.79 µM.

What about the TGI (DU-145 prostate) of the same compound?
Its TGI is 12.3 µM.

What about the GI50 (HCT-15 colon) of the same compound?
Its GI50 is 25 µM.

And the TGI (HCT-15 colon)?
Its TGI is over 100 µM.

What about the GI50 (UACC-257 melanoma) of the same compound?
Its GI50 is 5.47 µM.

And the TGI (UACC-257 melanoma)?
Its TGI is over 100 µM.

And the GI50 (MCF7 breast)?
The GI50 was 1.16 µM.

What about the TGI (MCF7 breast) of the same compound?
Its TGI is over 100 µM.

And the GI50 (OVCAR-5 ovarian)?
The GI50 was 3.5 µM.

And the TGI (OVCAR-5 ovarian)?
Its TGI is over 100 µM.

And the GI50 (NCI-H460 lung)?
The GI50 was 2.3 µM.

What about the TGI (NCI-H460 lung) of the same compound?
The TGI was over 100 µM.

What about the GI50 (SF-295 CNS) of the same compound?
Its GI50 is 2.12 µM.

What about the TGI (SF-295 CNS) of the same compound?
Its TGI is 15.4 µM.

What about the GI50 (U251 CNS) of the same compound?
Its GI50 is 3.82 µM.

And the TGI (U251 CNS)?
Its TGI is over 100 µM.

What about the GI50 (HCC-2998 colon) of the same compound?
The GI50 was 3.63 µM.

And the TGI (HCC-2998 colon)?
Its TGI is 26.9 µM.

And the GI50 (MALME-3M melanoma)?
The GI50 was 2.38 µM.

And the TGI (MALME-3M melanoma)?
Its TGI is over 100 µM.

And the GI50 (M14 melanoma)?
Its GI50 is 2.66 µM.

What about the TGI (M14 melanoma) of the same compound?
The TGI was over 41.6 µM.

And the GI50 (MDA-MB-231 breast)?
The GI50 was 2.98 µM.

And the TGI (MDA-MB-231 breast)?
Its TGI is over 95.8 µM.

What about the GI50 (TK-10 renal) of the same compound?
The GI50 was 11.5 µM.

What about the TGI (TK-10 renal) of the same compound?
The TGI was 84.3 µM.

What about the GI50 (K-562 leukemia) of the same compound?
Its GI50 is 3.95 µM.

And the TGI (K-562 leukemia)?
Its TGI is over 100 µM.

And the GI50 (RPMI-8226 leukemia)?
The GI50 was 1.9 µM.

What about the TGI (RPMI-8226 leukemia) of the same compound?
The TGI was over 100 µM.

What about the GI50 (SF-268 CNS) of the same compound?
Its GI50 is 4.63 µM.

And the TGI (SF-268 CNS)?
Its TGI is over 100 µM.

What about the GI50 (A498 renal) of the same compound?
Its GI50 is 3.46 µM.

What about the TGI (A498 renal) of the same compound?
Its TGI is over 52.7 µM.

And the GI50 (786-0 renal)?
The GI50 was 17.6 µM.

And the TGI (786-0 renal)?
Its TGI is over 100 µM.

And the GI50 (NCI-H522 lung)?
The GI50 was 1.8 µM.

What about the TGI (NCI-H522 lung) of the same compound?
Its TGI is 6.11 µM.

And the GI50 (PC-3 prostate)?
Its GI50 is 2.41 µM.

What about the TGI (PC-3 prostate) of the same compound?
Its TGI is over 100 µM.

What about the GI50 (SK-OV-3 ovarian) of the same compound?
The GI50 was 3.61 µM.

What about the TGI (SK-OV-3 ovarian) of the same compound?
Its TGI is 59.5 µM.

And the GI50 (MDA-MB-435)?
The GI50 was 0.373 µM.

And the TGI (MDA-MB-435)?
Its TGI is 1.69 µM.

And the GI50 (NCI-H23 lung)?
Its GI50 is 6.01 µM.

What about the TGI (NCI-H23 lung) of the same compound?
Its TGI is over 100 µM.

What about the GI50 (HOP-62 NSCLC) of the same compound?
Its GI50 is 3.57 µM.

What about the TGI (HOP-62 NSCLC) of the same compound?
Its TGI is over 100 µM.

What about the GI50 (HOP-92 NSCLC) of the same compound?
The GI50 was 0.416 µM.

What about the GI50 (CCRF-CEM leukemia) of the same compound?
Its GI50 is 3.29 µM.

What about the TGI (CCRF-CEM leukemia) of the same compound?
The TGI was over 100 µM.

And the GI50 (SK-MEL-28 melanoma)?
Its GI50 is 7.15 µM.

What about the TGI (SK-MEL-28 melanoma) of the same compound?
The TGI was over 100 µM.

And the GI50 (RXF 393 renal)?
Its GI50 is 1.59 µM.

What about the TGI (RXF 393 renal) of the same compound?
The TGI was 18.6 µM.

And the GI50 (SK-MEL-2 melanoma)?
Its GI50 is 3.28 µM.

What about the TGI (SK-MEL-2 melanoma) of the same compound?
Its TGI is 47.6 µM.

And the GI50 (MOLT-4 leukemia)?
Its GI50 is 8.2 µM.

And the TGI (MOLT-4 leukemia)?
The TGI was over 100 µM.

What about the GI50 (SR leukemia) of the same compound?
Its GI50 is 1.32 µM.

What about the TGI (SR leukemia) of the same compound?
The TGI was over 100 µM.

What about the GI50 (COLO 205 colon) of the same compound?
The GI50 was 1.89 µM.

What about the TGI (COLO 205 colon) of the same compound?
Its TGI is 6.39 µM.

What about the GI50 (HCT-116 colon) of the same compound?
Its GI50 is 1.2 µM.

And the TGI (HCT-116 colon)?
Its TGI is over 100 µM.

And the GI50 (NCI-H226 lung)?
The GI50 was 31.5 µM.

And the TGI (NCI-H226 lung)?
The TGI was over 100 µM.

What about the GI50 (SF-539 CNS) of the same compound?
Its GI50 is 2.28 µM.

What about the TGI (SF-539 CNS) of the same compound?
Its TGI is over 50.4 µM.
